Measurements from US12037340B2, “Pentacyclic derivatives as Zika virus inhibitors” (Gilead Sciences, Inc., priority 2021, dated 2024).

tested on: ZIKV; assay: microbe, parasite or virus in culture; format: cell-based, Zika virus; settings: 48 hrs

| Compound | EC50 [nM] |
| --- | --- |
| COC(=O)N[C@H](C(=O)N1[C@@H](C)CC[C@H]1c1nc(C2CC2)c(-c2ccc3c(c2)COc2cc4c(ccc5nc([C@@H]6CC[C@H](C)N6C(=O)[C@@H](NC(=O)OC)C(C)(C)C(F)(F)F)[nH]c54)cc2-3)[nH]1)C(C)(C)C(F)(F)F [Compound 41, methyl ((S)-1-((2S,5S)-2-(4-cyclopropyl-5-(2-((2S,5S)-5-methyl-1-((S)-4,4,4-trifluoro-2-((methoxycarbonyl)amino)-3,3-dimethylbutanoyl)pyrrolidin-2-yl)-1,11-dihydroisochromeno[4′,3′:6,7]naphtho[1,2-d]imidazol-9-yl)-1H-imidazol-2-yl)-5-methylpyrrolidin-1-yl)-4,4,4-trilluoro-3,3-dimethyl-1-oxobutan-2-yl)carbamate] | 4.8 |
| COC(=O)N[C@H](C(=O)N1[C@H](c2nc(Cl)c(-c3ccc4c(c3)COc3cc5ccc6[nH]c([C@@H]7C[C@@H]8CCC[C@@H]8N7C(=O)[C@@H](NC(=O)OC)C(C)(C)C(F)(F)F)nc6c5cc3-4)[nH]2)C[C@@H]2CCC[C@@H]21)C(C)(C)C(F)(F)F [Compound 37, methyl ((S)-1-((2S,3aS,6aS)-2-(4-chloro-5-(2-((2S,3aS,6aS)-1-((S)-4,4,4-trifluoro-2-((methoxycarbonyl)amino)-3,3-dimethylbutanoyl)octahydrocyclopenta[b]pyrrol-2-yl)-1,11-dihydroisochromeno[4′,3′:6,7]naphtho[1,2-d]imidazol-9-yl)-1H-imidazol-2-yl)hexahydrocyclopenta[b]pyrrol-l(2H)-yl)-4,4,4-trilluoro-3,3-dimethyl-1-oxobutan-2-yl)carbamate] | 13.3 |

same assay, conditions: Zika virus, Huh-7; 48 hrs

| Compound | EC50 [nM] |
| --- | --- |
| COC(=O)N[C@H](C(=O)N1[C@@H](C)CC[C@H]1c1nc(Cl)c(-c2ccc3c(c2)COc2cc4c(ccc5nc([C@@H]6CC[C@H](C)N6C(=O)[C@@H](NC(=O)OC)C6C[C@@H](C)O[C@H](C)C6)[nH]c54)cc2-3)[nH]1)C1CC(C)O[C@H](C)C1 (stereo in doubt) [Compound 9, methyl ((S)-2-((2S,5S)-2-(9-(4-chloro-2-((2S,5S)-1-((S)-2-((2R,6R)-2,6-dimethyltetrahydro-2H-pyran-4-yl)-2-((methoxycarbonyl)amino)acetyl)-5-methylpyrrolidin-2-yl)-1H-imidazol-5-yl)-1,11-dihydroisochromeno[4′,3′:6,7]naphtho[1,2-d]imidazol-2-yl)-5-methylpyrrolidin-1-yl)-1-((2R,6R)-2,6-dimethyltetrahydro-2H-pyran-4-yl)-2-oxoethyl)carbamate] | 48.1 |
| CC[C@@H](C)[C@H](NC(=O)OC)C(=O)N1[C@@H](C)CC[C@H]1c1nc(C(C)C)c(-c2ccc3c(c2)COc2cc4c(ccc5nc([C@@H]6CC[C@H](C)N6C(=O)[C@@H](NC(=O)OC)[C@H](C)CC)[nH]c54)cc2-3)[nH]1 [Compound 46, methyl ((2S,3R)-1-((2S,5S)-2-(4-isopropyl-5-(2-((2S,5S)-1-((methoxycarbonyl)-L-alloisoleucyl)-5-methylpyrrolidin-2-yl)-1,11-dihydroisochromeno[4′,3′:6,7]naphtho[1,2-d]imidazol-9-yl)-1H-imidazol-2-yl)-5-methylpyrrolidin-1-yl)-3-methyl-1-oxopentan-2-yl)carbamate] | 26.7 |
| COC(=O)N[C@H](C(=O)N1[C@@H](C)CC[C@H]1c1nc(C(C)C)c(-c2ccc3c(c2)COc2cc4c(ccc5nc([C@@H]6CC[C@H](C)N6C(=O)[C@@H](NC(=O)OC)C(C)C)[nH]c54)cc2-3)[nH]1)C(C)C [Compound 43, methyl ((S)-1-((2S,5S)-2-(4-isopropyl-5-(2-((2S,5S)-1-((methoxycarbonyl)-L-valyl)-5-methylpyrrolidin-2-yl)-1,11-dihydroisochromeno[4′,3′:6,7]naphtho[1,2-d]imidazol-9-yl)-1H-imidazol-2-yl)-5-methylpyrrolidin-1-yl)-3-methyl-1-oxobutan-2-yl)carbamate] | 57.7 |
| COC(=O)N[C@H](C(=O)N1[C@@H](C)CC[C@H]1c1nc(Cl)c(-c2ccc3c(c2)COc2cc4c(ccc5nc([C@@H]6CC[C@H](C)N6C(=O)[C@@H](NC(=O)OC)C(C)C)[nH]c54)cc2-3)[nH]1)C(C)C [Compound 21, methyl ((S)-1-((2S,5S)-2-(4-chloro-5-(2-((2S,5S)-1-((methoxycarbonyl)-L-valyl)-5-methylpyrrolidin-2-yl)-1,11-dihydroisochromeno[4′,3′:6,7]naphtho[1,2-d]imidazol-9-yl)-1H-imidazol-2-yl)-5-methylpyrrolidin-1-yl)-3-methyl-1-oxobutan-2-yl)carbamate] | 18.9 |
| CC[C@H](C)[C@H](NC(=O)OC)C(=O)N1CCC[C@H]1c1nc(Cl)c(-c2ccc3c(c2)COc2cc4c(ccc5nc([C@@H]6CCCN6C(=O)[C@@H](NC(=O)OC)[C@@H](C)CC)[nH]c54)cc2-3)[nH]1 [Compound 27, methyl ((2S,3S)-1-((S)-2-(4-chloro-5-(2-((S)-1-((methoxycarbonyl)-L-isoleucyl)pyrrolidin-2-yl)-1,11-dihydroisochromeno[4′,3′:6,7]naphtho[1,2-d]imidazol-9-yl)-1H-imidazol-2-yl)pyrrolidin-1-yl)-3-methyl-1-oxopentan-2-yl)carbamate] | 15.3 |
| COC[C@H]1C[C@@H](c2nc(Br)c(-c3ccc4c(c3)COc3cc5c(ccc6nc([C@@H]7CC[C@H](C)N7C(=O)[C@@H](NC(=O)OC)C(C)C)[nH]c65)cc3-4)[nH]2)N(C(=O)[C@@H](NC(=O)OC)C(C)C)C1 [Compound 8, methyl ((S)-1-((2S,5S)-2-(9-(4-bromo-2-((2S,4S)-1-((methoxycarbonyl)-L-valyl)-4-(methoxymethyl)pyrrolidin-2-yl)-1H-imidazol-5-yl)-1,11-dihydroisochromeno[4′,3′:6,7]naphtho[1,2-d]imidazol-2-yl)-5-methylpyrrolidin-1-yl)-3-methyl-1-oxobutan-2-yl)carbamate] | 24.1 |
| COC(=O)N[C@H](C(=O)N1[C@@H](C)CC[C@H]1c1nc(Cl)c(-c2ccc3c(c2)COc2cc4c(ccc5nc([C@@H]6CC[C@H](C)N6C(=O)[C@@H](NC(=O)OC)C(C)(C)CF)[nH]c54)cc2-3)[nH]1)C(C)(C)CF [Compound 32, methyl ((S)-1-((2S,5S)-2-(4-chloro-5-(2-((2S,5S)-1-((S)-4-fluoro-2-((methoxycarbonyl)amino)-3,3-dimethylbutanoyl)-5-methylpyrrolidin-2-yl)-1,11-dihydroisochromeno[4′,3′:6,7]naphtho[1,2-d]imidazol-9-yl)-1H-imidazol-2-yl)-5-methylpyrrolidin-1-yl)-4-fluoro-3,3-dimethyl-1-oxobutan-2-yl)carbamate] | 5.9 |
| CC[C@@H](C)[C@H](NC(=O)OC)C(=O)N1[C@@H](C)CC[C@H]1c1nc(Cl)c(-c2ccc3c(c2)COc2cc4c(ccc5nc([C@@H]6CC[C@H](C)N6C(=O)[C@@H](NC(=O)OC)[C@H](C)CC)[nH]c54)cc2-3)[nH]1 [Compound 25, methyl ((2S,3R)-1-((2S,5S)-2-(4-chloro-5-(2-((2S,5S)-1-((methoxycarbonyl)-L-alloisoleucyl)-5-methylpyrrolidin-2-yl)-1,11-dihydroisochromeno[4′,3′:6,7]naphtho[1,2-d]imidazol-9-yl)-1H-imidazol-2-yl)-5-methylpyrrolidin-1-yl)-3-methyl-1-oxopentan-2-yl)carbamate] | 8.3 |
| COC(=O)N[C@H](C(=O)N1[C@@H](C)CC[C@H]1c1nc(C2CC2)c(-c2ccc3c(c2)COc2cc4c(ccc5nc([C@@H]6CC[C@H](C)N6C(=O)[C@@H](NC(=O)OC)C6C[C@@H](C)O[C@H](C)C6)[nH]c54)cc2-3)[nH]1)C1C[C@@H](C)O[C@H](C)C1 (stereo partly drawn) [Compound 11, methyl ((S)-2-((2S,5S)-2-(9-(4-cyclopropyl-2-((2S,5S)-1-((S)-2-((2R,6R)-2,6-dimethyltetrahydro-2H-pyran-4-yl)-2-((methoxycarbonyl)amino)acetyl)-5-methylpyrrolidin-2-yl)-1H-imidazol-5-yl)-1,11-dihydroisochromeno[4′,3′:6,7]naphtho[1,2-d]imidazol-2-yl)-5-methylpyrrolidin-1-yl)-1-((2R,6R)-2,6-dimethyltetrahydro-2H-pyran-4-yl)-2-oxoethyl)carbamate] | 21.9 |
| CC[C@H](C)[C@H](NC(=O)OC)C(=O)N1[C@@H](C)CC[C@H]1c1nc(C2CC2)c(-c2ccc3c(c2)COc2cc4c(ccc5nc([C@@H]6CC[C@H](C)N6C(=O)[C@@H](NC(=O)OC)[C@@H](C)CC)[nH]c54)cc2-3)[nH]1 [Compound 39, methyl ((2S,3S)-1-((2S,5S)-2-(4-cyclopropyl-5-(2-((2S,5S)-1-((methoxycarbonyl)-L-isoleucyl)-5-methylpyrrolidin-2-yl)-1,11-dihydroisochromeno[4′,3′:6,7]naphtho[1,2-d]imidazol-9-yl)-1H-imidazol-2-yl)-5-methylpyrrolidin-1-yl)-3-methyl-1-oxopentan-2-yl)carbamate] | 17.2 |
| COC[C@H]1C[C@@H](c2nc(Cl)c(-c3ccc4c(c3)COc3cc5c(ccc6nc([C@@H]7CC[C@H](C)N7C(=O)[C@@H](NC(=O)OC)C(C)C)[nH]c65)cc3-4)[nH]2)N(C(=O)[C@@H](NC(=O)OC)C(C)C)C1 [Compound 7, methyl ((S)-1-((2S,5S)-2-(9-(4-chloro-2-((2S,4S)-1-((methoxycarbonyl)-L-valyl)-4-(methoxymethyl)pyrrolidin-2-yl)-1H-imidazol-5-yl)-1,11-dihydroisochromeno[4′,3′:6,7]naphtho[1,2-d]imidazol-2-yl)-5-methylpyrrolidin-1-yl)-3-methyl-1-oxobutan-2-yl)carbamate] | 39 |
| COC(=O)N[C@H](C(=O)N1[C@@H](C)CC[C@H]1c1nc(C(C)C)c(-c2ccc3c(c2)COc2cc4c(ccc5nc([C@@H]6CC[C@H](C)N6C(=O)[C@@H](NC(=O)OC)C(C)(C)CF)[nH]c54)cc2-3)[nH]1)C(C)(C)CF [Compound 47, methyl ((S)-4-fluoro-1-((2S,5S)-2-(5-(2-((2S,5S)-1-((S)-4-fluoro-2-((methoxycarbonyl)amino)-3,3-dimethylbutanoyl)-5-methylpyrrolidin-2-yl)-1,11-dihydroisochromeno[4′,3′:6,7]naphtho[1,2-d]imidazol-9-yl)-4-isopropyl-1H-imidazol-2-yl)-5-methylpyrrolidin-1-yl)-3,3-dimethyl-1-oxobutan-2-yl)carbamate] | 21.7 |
